The source of these data is publication PMC7113892 (Antiviral Research, 2017).

As a reminder, the IC50 is the concentration that inhibits the measured activity by half. A low value points to greater potency.

Bounds are passed on as bounds.

The target in experiment [1] is human RNA N7-methyltransferase (RNMT) (Homo sapiens, UniProt O43148). As to the kind of experiment: biochemical.
In a further experiment the target is DENV-2 NS5-RdRp (Dengue virus type 2, UniProt P14340). Format: biochemical. Conditions: 50 μM.

human RNA N7-methyltransferase (RNMT), sequence (O43148 whole entry, looked up): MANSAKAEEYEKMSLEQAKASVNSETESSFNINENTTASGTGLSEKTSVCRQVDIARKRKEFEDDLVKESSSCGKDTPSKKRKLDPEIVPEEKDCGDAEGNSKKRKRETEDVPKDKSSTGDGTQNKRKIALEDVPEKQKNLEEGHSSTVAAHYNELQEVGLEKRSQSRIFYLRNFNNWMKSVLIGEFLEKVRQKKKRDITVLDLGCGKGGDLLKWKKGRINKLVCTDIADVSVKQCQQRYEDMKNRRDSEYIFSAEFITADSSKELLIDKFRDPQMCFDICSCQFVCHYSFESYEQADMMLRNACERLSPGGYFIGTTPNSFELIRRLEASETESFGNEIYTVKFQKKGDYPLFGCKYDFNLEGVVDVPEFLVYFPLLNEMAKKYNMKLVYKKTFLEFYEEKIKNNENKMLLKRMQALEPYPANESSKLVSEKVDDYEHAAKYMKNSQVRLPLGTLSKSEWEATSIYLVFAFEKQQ

In experiment [1], `Nc1ncnc2c1ncn2[C@@H]1O[C@H](C[C@@H](N)CC[C@H](N)C(=O)O)[C@@H](O)[C@H]1O` [Sinefungin] showed a half-maximal inhibitory concentration (IC50) of less than 50 nM. The “Inhibition of RdRp activity of DENV NS5 (in words)” value on DENV-2 NS5-RdRp is recorded as “no inhibition detected”.
